From ChEMBL document CHEMBL2375230 (J Med Chem, 2013)
≈ marks a conversion by molar mass, not a printed value. Calls of active or inactive are those of the source. The calls are words filed in the database; no cut-off is given here.

How the values were obtained:
[1] = system: HUVEC; assay: Inhibition of methionine aminopeptidase in HUVEC assessed as increase in unprocessed 14-3-3gamma level at 0.1 to 10 uM by immunoblotting analysis; assay type: cell-based; conditions: Homo sapiens
[2] = system: HeLa; assay: Inhibition of methionine aminopeptidase in human HeLa cells assessed as increase in ratio of unprocessed 14-3-3gamma to total 14-3-3gamma at 0.1 uM after 24 hrs by immunoblotting analysis relative to DMSO-treated control; assay type: cell-based
[3] = species: Homo sapiens; assay: Inhibition of methionine aminopeptidase in HUVEC assessed as increase in ratio of unprocessed 14-3-3gamma to total 14-3-3gamma at 0.1 uM after 24 hrs by immunoblotting analysis relative to control
[4] = system: E6-1; assay: Inhibition of methionine aminopeptidase in human Jurkat E6-1 cells assessed as increase in ratio of unprocessed 14-3-3gamma to total 14-3-3gamma at 0.1 uM after 24 hrs by immunoblotting analysis relative to DMSO-treated control; assay type: cell-based
[5] = system: HUVEC; assay: Inhibition of methionine aminopeptidase in HUVEC assessed as increase in unprocessed 14-3-3gamma level at 0.1 to 10 uM by immunoblotting analysis in presence of cycloheximide; assay type: cell-based; conditions: Homo sapiens
[6] = system: HEK293; assay: Inhibition of methionine aminopeptidase in HEK293 cells assessed as increase in ratio of unprocessed 14-3-3gamma to total 14-3-3gamma at 0.1 uM after 24 hrs by immunoblotting analysis relative to DMSO-treated control; assay type: cell-based; conditions: Homo sapiens
[7] = system: HUVEC; assay: Inhibition of methionine aminopeptidase in HUVEC assessed as accumulation of unprocessed 14-3-3gamma at 10 nM after 24 hrs by immunoblotting analysis; assay type: cell-based; conditions: Homo sapiens
[8] = molecular target: Methionine aminopeptidase 2 (Homo sapiens, UniProt P50579); assay: Inhibition of human methionine aminopeptidase 2 in presence of Mn2+
Chain of Methionine aminopeptidase 2 (P50579 whole entry): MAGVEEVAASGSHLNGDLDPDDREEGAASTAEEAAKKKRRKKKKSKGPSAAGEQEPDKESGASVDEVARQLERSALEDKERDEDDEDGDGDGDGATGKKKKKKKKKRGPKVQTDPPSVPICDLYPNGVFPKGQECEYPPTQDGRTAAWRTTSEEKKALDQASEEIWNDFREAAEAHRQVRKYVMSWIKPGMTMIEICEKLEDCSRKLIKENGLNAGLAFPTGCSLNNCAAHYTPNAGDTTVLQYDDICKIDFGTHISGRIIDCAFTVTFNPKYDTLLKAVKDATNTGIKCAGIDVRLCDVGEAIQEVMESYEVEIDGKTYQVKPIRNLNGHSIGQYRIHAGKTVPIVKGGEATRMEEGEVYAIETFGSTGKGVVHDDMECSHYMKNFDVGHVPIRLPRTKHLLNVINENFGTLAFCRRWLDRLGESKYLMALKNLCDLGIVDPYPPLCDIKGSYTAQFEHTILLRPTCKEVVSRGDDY

[9] = molecular target: T1, Methionine aminopeptidase 1 (Homo sapiens, UniProt P53582); assay: Inhibition of human methionine aminopeptidase 1 in presence of Co2+
[10] = molecular target: T1, Methionine aminopeptidase 1; assay: Inhibition of human methionine aminopeptidase 1 in presence of Mn2+
[11] = system: MCF7; assay: Inhibition of methionine aminopeptidase in human MCF7 cells assessed as increase in ratio of unprocessed 14-3-3gamma to total 14-3-3gamma at 0.1 uM after 24 hrs by immunoblotting analysis relative to DMSO-treated control; assay type: cell-based
[12] = system: PC-3; assay: Inhibition of methionine aminopeptidase in human PC3 cells assessed as increase in ratio of unprocessed 14-3-3gamma to total 14-3-3gamma at 0.1 uM after 24 hrs by immunoblotting analysis relative to DMSO-treated control; assay type: cell-based
[13] = system: HeLa; assay: Antiproliferative activity against human HeLa cells after 30 hrs by [3H]-thymidine incorporation assay; assay type: functional, cell-based
[14] = Solubility of the compound; assay type: physicochemical
[15] = system: HUVEC; assay: Antiproliferative activity against HUVEC after 30 hrs by [3H]-thymidine incorporation assay; assay type: functional, cell-based, Homo sapiens
[16] = system: HUVEC; assay: Antiproliferative activity against HUVEC at 30 uM after 30 hrs by [3H]-thymidine incorporation assay relative to control; assay type: functional, Homo sapiens
[17] = Antiproliferative activity against HDFa cells after 30 hrs by [3H]-thymidine incorporation assay; assay type: functional, cell-based, Homo sapiens
[18] = system: HUVEC; assay: Cytotoxicity against HUVEC at 10 uM after 24 hrs; assay type: cell-based; conditions: human
[19] = molecular target: T1, Methionine aminopeptidase 1; assay: Inhibition of human methionine aminopeptidase 1 up to 250 uM
[20] = molecular target: T1, Methionine aminopeptidase 1; assay: Inhibition of human methionine aminopeptidase 1 in presence of Zn2+
[21] = Antiproliferative activity against HDFa cells at 30 uM after 30 hrs by [3H]-thymidine incorporation assay relative to control; assay type: functional, Homo sapiens
[22] = system: HDFa; assay: Antiproliferative activity against HDFa cells at 10 uM after 30 hrs by [3H]-thymidine incorporation assay; assay type: functional, cell-based; conditions: Homo sapiens
[23] = system: HUVEC; assay: Inhibition of methionine aminopeptidase in HUVEC assessed as accumulation of unprocessed 14-3-3gamma at 1 nM after 24 hrs by immunoblotting analysis; assay type: cell-based; conditions: Homo sapiens
[24] = molecular target: T1, Methionine aminopeptidase 1; assay: Inhibition of methionine aminopeptidase 1 in HEK293 cells expressing 3xFLAG-tagged BTF3 assessed as increase in [35S]-Met in solution at 100 nM after 30 mins by scintillation counting analysis; assay type: cell-based

CCCCCCCCCCCCCC(=O)O[C@H]1CC[C@H](NC(=O)[C@H](OC)[C@H](O)[C@@H](O)[C@H](O)/C=C/C(C)C)C(=O)NC1
inhibition [1]: Active
Ratio [2]: 2.3
Ratio [3]: 8.1
Ratio [4]: 1.4
inhibition [5]: inactive
Ratio [6]: 2.1
inhibition [7]: Active

Clc1nc(-c2ccccn2)nc2ccccc12
EC50 [8]: > 100 µM
EC50 [9]: 1.5 µM
EC50 [10]: > 100 µM

CN1CCN(c2cc(-c3ccccn3)nc3ccccc23)CC1
EC50 [8]: > 100 µM
EC50 [9]: 0.87 µM
EC50 [10]: > 100 µM

c1ccc(-c2nc(N3CCOCC3)c3ccccc3n2)nc1
EC50 [8]: > 100 µM
EC50 [9]: 0.049 µM
EC50 [10]: 41 µM

CCCCCCCCCCCCCC(=O)O[C@H]1CC[C@H](NC(=O)[C@H](OC)[C@H](O)[C@@H](O)[C@H](O)/C=C/C(C)C)C(=O)N(C)C1
Ratio [11]: 2.6
Ratio [12]: 2.1

Cc1nc(-c2ccccn2)nc(NCCc2ccccc2)c1Cl
EC50 ([13]; Homo sapiens, HeLa): 7.1 µM
solubility [14]: 90 µM (≈ 29.2 µg/mL)
EC50 ([15]; Homo sapiens, HUVEC): 11 µM
Activity [16]: >90%
EC50 ([17]; Homo sapiens, HDFa): 3.6 µM

c1ccc(-c2nc(N3CCCCC3)c3ccccc3n2)nc1
EC50 [8]: > 100 µM
EC50 [9]: 0.11 µM
EC50 [10]: 7.6 µM

c1ccc(NCCNc2nc(-c3ccccn3)nc3ccccc23)cc1
EC50 [8]: > 300 µM
EC50 [9]: 1.6 µM
EC50 [10]: > 100 µM

Cc1nc(-c2ccc(Cl)cn2)nc(NC[C@@H](NCCCCc2ccccc2)c2ccccc2)c1Cl
EC50 ([13]; Homo sapiens, HeLa): 0.97 µM
Activity [18]: Toxic
solubility [14]: 40 µM (≈ 20.3 µg/mL)
EC50 ([17]; Homo sapiens, HDFa): 0.76 µM

c1ccc(-c2cc(N3CCOCC3)c3ccccc3n2)nc1
EC50 [8]: > 100 µM
EC50 [9]: 0.41 µM
EC50 [10]: > 100 µM

c1ccc2[nH]c(-c3cscn3)nc2c1 [THIABENDAZOLE]
EC50 ([15]; Homo sapiens, HUVEC): > 250 µM
EC50 ([17]; Homo sapiens, HDFa): > 250 µM
inhibition [19]: inactive
EC50 [20]: > 250 µM
EC50 [9]: 3.4 µM
EC50 [10]: > 100 µM

c1ccc(-c2ccccn2)nc1
Activity [21]: 94%
EC50 ([17]; Homo sapiens, HDFa): 10 µM
Activity [22]: inactive

CO[C@@H]1[C@H](OC(=O)NC(=O)CCl)CC[C@]2(CO2)[C@H]1[C@@]1(C)O[C@@H]1CC=C(C)C
inhibition [1]: Active
inhibition [5]: inactive
inhibition [23]: Active
inhibition [24]: inactive

c1ccc(-c2cc(N3CCCCC3)c3ccccc3n2)nc1
EC50 [8]: > 100 µM
EC50 [9]: 0.39 µM
EC50 [10]: > 100 µM

c1ccc(CCNc2nc(-c3ccccn3)nc3ccccc23)cc1
EC50 [8]: > 100 µM
EC50 [9]: 0.94 µM
EC50 [10]: 24 µM

CC(C)(C)OC(=O)Nc1cccnc1C(=O)Nc1nccs1
EC50 ([13]; Homo sapiens, HeLa): 2.3 µM
EC50 ([13]; hela): 2 µM
EC50 ([15]; Homo sapiens, HUVEC): 2 µM
EC50 ([15]; huvec): 1.5 µM
EC50 ([17]; Homo sapiens, HDFa): 0.79 µM
EC50 ([17]; hdfa): 0.65 µM

Cc1nc(-c2ccccn2)nc(NCCNc2ccc(C(F)(F)F)cn2)c1Cl
EC50 ([13]; Homo sapiens, HeLa): 10 µM
solubility [14]: 40 µM (≈ 16.4 µg/mL)
EC50 ([15]; Homo sapiens, HUVEC): 4.3 µM
EC50 ([17]; Homo sapiens, HDFa): 1.9 µM
